Measured values: patent US20250057791A1, “PROTECTION AGAINST ARTHROPOD PARASITES WITH PURINERGIC RECEPTOR (OPR) ANTAGONISTS” (priority 2021, published 2025)
Several values for one entry are separate records, joined by “and”; a condition that tells them apart may be missing. Identical values can stand only once.

What was measured:
Ixodes ricinus = assay: Glass capillary feeding of partly fed female ticks, Ixodes ricinus; type: in vivo; conditions: for Fluid intake, Median (mg): females, glass capillary
Description: (§1) I. ricinus adults were prefed for 3-4 days and A. hebraeum adults for 10 days on a membrane over bovine blood (Kröber T. and Guerin P. M., 2007, supra). Partly fed I. ricinus and A. hebraeum, freshly detached from the membrane, were tightly fixed by the scutum and alloscutum to double-sided adhesive tape (Tesafix® 4964, Beiersdorf, Hamburg, Germany) on a glass slide and secured with plasticine. Test compounds were fed to these partly-fed female ticks using borosilicate capillary tubes (Clark GC120-10, 0.69 mm i.d., 1.2 mm o.d., 50 mm long; Clark Electromedical Instruments, Pangbourne, Reading, UK) with drawn out tips adapted to fit around the mouthparts of individual ticks. Feeding capillaries were filled with a solution of 100 mM NaCl, 8.9 mM NaHCO3 with 1000 μM ATP added, hereafter termed tick feeding solution (TFS) that served as positive control in each feeding experiment. PR antagonists were added to the TFS and pH of the solution was adjusted to 7.2-7.8. Capillary-fed ticks were kept in a plastic box on a warm plate at 34° C. and 80% RH using wet paper. After 1 h, the amount of solution imbibed by a tick was indicated by the drop of the meniscus in the capillary and measured using Vernier callipers and converted to mg.
Uptake of TFS containing PR antagonists, converted to mg/h for hard ticks and weight gains in mg/25 min for soft ticks, was compared to TFS uptake in the corresponding positive controls. […] For tsetse and horn flies the percentage flies that fed per antagonist treatment served as the criterion for inhibition of feeding. As horn fly sexes emerged within 24 h, both sexes were assumed to show the same degree of appetence. In tsetse, males emerged first so a gender-related appetence could not be excluded. No sex-related feeding differences in feeding were found for testse (GLM, P>0.05) so data for the sexes were pooled. Comparisons of percentage fed flies were made using a Bayesian GLM—the most appropriate model considering the zero-inflated distributions shown by the data sets. […]

Amblyomma hebraeum = assay: Glass capillary feeding of partly fed female ticks, Amblyomma hebraeum; type: in vivo; conditions: females
Description: as §1, with “mg. […]” for “mg.”

[1] = test system: A. gambiae labellum ATP-sensitive receptor; assay: Effects of metal ions on electrophysiological responses to ATP; type: cell-based, Anopheles gambiae
Procedure: The tip recording method was used to record action potentials (spikes) from sensory cells in sensilla on A. gambiae labellum lobes.
Sensilla were exposed to test compounds and PR antagonists for ca. 2-4 s and spikes were counted in the first 2 s of recordings. Up to 4 test compounds were tested on a sensillum to evaluate potential agonists, each presented at 200 pM. To study responses as a function of dose for agonists ATP, adenosine, AMP, AMP-CPP and ATP+adenosine, up to 7 recordings were made at increasing doses of agonist from the same sensillum. […]
Pairwise comparisons of A. gambiae electrophysiological (EP) responses to ATP and adenosine alone and combined with a given dose of PR antagonist, EP responses to ATP alone and combined with a given dose of a metal modulator, and EP responses to ATP prior to and after exposure of a sensillum to a given dose of a PR antagonist were made with a one-tailed Wilcoxon signed-rank test for data showing a non-normal distribution, with a paired Student's t-test for normally distributed data showing homogeneous variance and with a Welch's t-test for normally distributed data showing non-homogeneous variance. […] Percent feeding inhibition induced by PR antagonists in A. stephensi was calculated using Abbott's formula.

[2] = test system: Vertebrate P2X3 and P2X2/3 PRs; conditions: cited from earlier work

Question: Which results are given for `Cc1ccc(C(=O)Nc2ccc(S(=O)(=O)O)c3cc(S(=O)(=O)O)cc(S(=O)(=O)O)c23)cc1NC(=O)c1cccc(NC(=O)Nc2cccc(C(=O)Nc3cc(C(=O)Nc4ccc(S(=O)(=O)O)c5cc(S(=O)(=O)O)cc(S(=O)(=O)O)c45)ccc3C)c2)c1` [Suramin]?
Answer: Fluid intake, Median (mg) (Ixodes ricinus; TFS + 500 μM): 1.9 mg/h; Fluid intake, Median (mg) (Amblyomma hebraeum; TFS + 500 μM): 4.5 mg/h

Question: Which results are given for `Nc1ncnc2c1ncn2[C@@H]1O[C@H](COP(=O)(O)OP(=O)(O)OP(=O)(O)O)[C@@H](O)[C@H]1O` [ATP, Adenosine 5′-triphosphate]?
Answer: Mean no. of spikes per 2 s (±s.e.m.) ([1]; 100 pM ATP alone): 3 ± 1.67 spikes per 2 s; Mean no. of spikes per 2 s (±s.e.m.) ([1]; 200 pM ATP alone): 24.8 ± 4.84 spikes per 2 s and 28.12 ± 3.5 spikes per 2 s; affinity [2]: < 1 nM

Question: For `O=C(O)c1cc(C(=O)O)c(C(=O)N(Cc2cccc(Oc3ccccc3)c2)[C@H]2CCCc3ccccc32)cc1C(=O)O` [A-317491, 5-[(3-phenoxyphenyl)methyl-[(1S)-1,2,3,4-tetrahydronaphthalen-1-yl]carbamoyl]benzene-1,2,4-tricarboxylic acid], which “Fluid intake, Median (mg)” value (Ixodes ricinus; TFS + 1 μM) is on record?
Answer: 1.5 mg/h

Question: And the “effect on feeding on solution containing ATP, in words” value (Ixodes ricinus; doses as in Table 9)?
Answer: inhibited feeding

Question: And the “Fluid intake, Median (mg)” value (Amblyomma hebraeum; TFS + 1 μM)?
Answer: 6.7 mg/h

Question: And the Kd ([2]; Jarvis et al., 2002)?
Answer: 0.9 nM
